Five compounds from EPA's ToxRefDB 2 can be followed below.

Data set [1] concerns rabbit. As to conditions: Prenatal developmental toxicity study, new zealand white, Oral, Gavage/Intubation, dose end: 28 GD.
For data set [2], the system named is rabbit. As to conditions: Prenatal developmental toxicity study, new zealand white, Oral, Gavage/Intubation, dose end: 28 GD. This is another data set of the same source.
Data set [3] has as its system rat. As to conditions: Peri- and post-natal toxicity study (Segment III), sprague dawley, Oral, Gavage/Intubation, dose end: 40 PND.
Data set [4] deals with dog. As to conditions: Prenatal developmental toxicity study, beagle, Oral, Feed, dose end: 56 GD.
The test system of data set [5] is rat. As to conditions: Combined chronic toxicity/carcinogenicity, wistar, Oral, Feed, dose end: 104 week.
In data set [6] the test system is rabbit. As to conditions: Prenatal developmental toxicity study, new zealand white, Oral, Gavage/Intubation, dose end: 18 GD.
Data set [7] deals with dog. As to conditions: Chronic toxicity, beagle, Oral, Feed, dose end: 104 week.
Data set [8] relates to rat. As to conditions: Subchronic oral toxicity in rodents, fischer, Feed, dose end: 13 week.
The test system of data set [9] is rat. As to conditions: Combined chronic toxicity/carcinogenicity, fischer, Oral, Feed, dose end: 104 week.
For data set [10], the system named is mouse. As to conditions: Subchronic oral toxicity in rodents, b6c3f1, Gavage/Intubation, dose end: 13 week.
For data set [11], the system named is mouse. As to conditions: Combined chronic toxicity/carcinogenicity, b6c3f1, Oral, Feed, dose end: 105 week.
Data set [12] concerns mouse. As to conditions: Subchronic oral toxicity in rodents, b6c3f1, Feed, dose end: 13 week.
Data set [13] relates to rat. As to conditions: Subchronic oral toxicity in rodents, fischer, Gavage/Intubation, dose end: 13 week.
The mark [14] stands for this setting: group: developmental, developmental / developmental malformation / trunk / omphalocele + systemic / in life observation / body weight / fetal weight.
[15] abbreviates: group: maternal, reproductive / reproductive performance / resorptions / resorptions + systemic / in life observation / body weight / body weight + systemic….
[16] abbreviates: group: developmental, developmental / developmental malformation / bone / delayed ossification + developmental / developmental malformation / bone / hemicentric….
Setting [17] is: group: maternal, systemic / in life observation / body weight / body weight gain + systemic / in life observation / food consumption / food consumption.
The mark [18] stands for this setting: group: maternal, systemic / in life observation / body weight / body weight gain + systemic / in life observation / food consumption / food consumption + ….
The mark [19] stands for this setting: group: developmental, developmental / developmental landmark / vaginal opening / vaginal opening.
Setting [20] is: group: maternal, reproductive / reproductive performance / estrous cycle / abnormal + reproductive / reproductive performance / estrous cycle / corpora lutea.
The mark [21] stands for this setting: group: parental, systemic / clinical chemistry / estradiol / estradiol + systemic / organ weight / kidney / absolute + systemic / organ weight / ovary / ….
Setting [22] is: group: developmental, developmental / offspring survival late / [other] / [other] + systemic / in life observation / body weight / offspring (pup) weight.
The mark [23] stands for this setting: group: maternal, reproductive / offspring survival early / dead fetuses / dead fetuses.
The mark [24] stands for this setting: group: cholinesterase, cholinesterase / cholinesterase / cholinesterase / plasma cholinesterase (che).
The mark [25] stands for this setting: group: systemic, systemic / hematology / erythrocyte (rbc) count differential / erythrocyte (rbc) + systemic / hematology / reticulocyte / reticulocyte + ….
Where [26] appears, read: group: cholinesterase, cholinesterase / cholinesterase / cholinesterase / cholinesterase (che).
Where [27] appears, read: group: developmental, developmental / developmental malformation / liver / discolored.
[28] abbreviates: group: maternal, systemic / in life observation / body weight / body weight + systemic / in life observation / body weight / body weight gain.
Setting [29] is: group: systemic, systemic / in life observation / food consumption / food consumption + systemic / in life observation / clinical signs / hindlimb strength….
[30] abbreviates: group: systemic, systemic / in life observation / body weight / body weight + systemic / in life observation / body weight / body weight gain + systemic / in….
Setting [31] is: group: systemic, systemic / pathology microscopic / adrenal gland / vacuolization cytoplasmic.
[32] abbreviates: group: systemic, systemic / pathology microscopic / ovary / hyperplasia + systemic / in life observation / clinical signs / grip strength + systemic / organ ….
[33] abbreviates: group: systemic, systemic / pathology microscopic / adrenal gland / vacuolization cytoplasmic + systemic / pathology microscopic / ovary / hypertrophy.
Setting [34] is: group: systemic, systemic / pathology microscopic / adrenal gland / pigmentation.
The mark [35] stands for this setting: group: systemic, systemic / hematology / hemoglobin (hgb) / hemoglobin (hgb) + systemic / hematology / mean corpuscular hemoglobin concentration (mchc) / ….
Setting [36] is: group: systemic, systemic / hematology / hemoglobin (hgb) / hemoglobin (hgb) + systemic / in life observation / clinical signs / grip strength + systemic / ….

With `O.O.[Cu]` [Copper(II) hydroxide], the LEL in [1] (setting [14]) came to 30 mg/kg/day; in data set [1] (group: maternal, systemic / in life observation / body weight / body weight + systemic / in life observation / body weight / body weight gain + systemic / in…), 15 mg/kg/day; in data set [2] (setting [16]) it was 18 mg/kg/day; in data set [2] (setting [17]), 9 mg/kg/day. The LOAEL is > 30 mg/kg/day in data set [1] (setting [14]), > 30 mg/kg/day in [1] (setting [15]), 18 mg/kg/day in [2] (setting [16]) and 9 mg/kg/day in [2] (setting [17]). Further, the NEL in [1] (setting [14]) came to 15 mg/kg/day; in data set [1] (setting [15]), 7.5 mg/kg/day; in data set [2] (setting [16]), 9 mg/kg/day; in [2] (setting [18]), 6 mg/kg/day. Besides, the NOAEL in data set [1] (setting [14]) was ≥ 30 mg/kg/day; in [1] (setting [15]), ≥ 30 mg/kg/day; in data set [2] (setting [16]), 9 mg/kg/day; in data set [2] (setting [18]), 6 mg/kg/day.
`CC(C)OC(=O)c1ccc(O)cc1` [Isopropylparaben]: in data set [3] (setting [19]), the LEL turned out to be 250 mg/kg/day, the LOAEL is > 1000 mg/kg/day, the NEL came out at 62.5 mg/kg/day and the NOAEL is ≥ 1000 mg/kg/day. In addition, in data set [3] (setting [20]), the LEL was 1000 mg/kg/day, the LOAEL was > 1000 mg/kg/day, the NEL was determined as 250 mg/kg/day and the NOAEL is ≥ 1000 mg/kg/day. Moreover, in [3] (setting [21]), the LEL worked out at 1000 mg/kg/day, the lowest observed adverse effect level (LOAEL) was > 1000 mg/kg/day, the NEL was determined as 250 mg/kg/day and the no-observed-adverse-effect level (NOAEL) was ≥ 1000 mg/kg/day.
As for `C1N2CN3CN1CN(C2)C3` [Methenamine], in [4] (setting [22]), the LEL is 31 mg/kg/day, the LOAEL was > 31 mg/kg/day, the NEL turned out to be 15 mg/kg/day and the NOAEL was ≥ 31 mg/kg/day. Further, in data set [4] (setting [23]), the LEL is 31 mg/kg/day, the LOAEL is > 31 mg/kg/day, the NEL was 15 mg/kg/day and the NOAEL was ≥ 31 mg/kg/day.
Turning to `CNC(=O)Oc1cc(C)c(SC)c(C)c1` [Methiocarb], the LEL in [5] (setting [24]) came out at 30 mg/kg/day; in data set [5] (group: systemic, systemic / hematology / erythrocyte (rbc) count differential / erythrocyte (rbc) + systemic / hematology / reticulocyte / reticulocyte) it was 10 mg/kg/day; in data set [6] (setting [26]) it was 10 mg/kg/day; in [6] (setting [27]), 10 mg/kg/day; in data set [6] (setting [28]) it was 10 mg/kg/day; in data set [7] (setting [24]), 0.75 mg/kg/day. The LEL in data set [7] (group: systemic, systemic / in life observation / food consumption / food consumption) was 3 mg/kg/day. The LOAEL in data set [5] (setting [24]) was > 30 mg/kg/day; in data set [5] (group: systemic, systemic / hematology / erythrocyte (rbc) count differential / erythrocyte (rbc)) it was 10 mg/kg/day; in [6] (setting [26]), 10 mg/kg/day; in data set [6] (setting [27]), > 10 mg/kg/day; in [6] (setting [28]) it was 10 mg/kg/day; in [7] (setting [24]), 0.75 mg/kg/day. In addition, the LOAEL in data set [7] (group: systemic, systemic / in life observation / clinical signs / tremors) was 12 mg/kg/day. In addition, the NEL is 10 mg/kg/day in data set [5] (setting [24]); 3.4 mg/kg/day in data set [5] (setting [25]); 3 mg/kg/day in data set [6] (setting [26]); 3 mg/kg/day in [6] (setting [27]); 3 mg/kg/day in data set [6] (setting [28]); < 0.75 mg/kg/day in [7] (setting [24]). Further, the NEL in [7] (setting [29]) is 0.75 mg/kg/day. In addition, the NOAEL in data set [5] (setting [24]) was ≥ 30 mg/kg/day; in [5] (setting [25]), 3.4 mg/kg/day; in data set [6] (setting [26]), 3 mg/kg/day; in data set [6] (setting [27]), ≥ 10 mg/kg/day; in data set [6] (setting [28]), 3 mg/kg/day; in [7] (setting [24]) it was < 0.75 mg/kg/day. In data set [7] (setting [29]), the NOAEL was determined as 3 mg/kg/day.
Turning to `Cc1ccc(OP(=O)(Oc2ccc(C)cc2)Oc2ccc(C)cc2)cc1.Cc1cccc(OP(=O)(Oc2cccc(C)c2)Oc2cccc(C)c2)c1.Cc1ccccc1OP(=O)(Oc1ccccc1C)Oc1ccccc1C` [Tricresyl phosphate], the LEL in data set [8] (setting [26]) is 55 mg/kg/day; in [8] (setting [31]), 55 mg/kg/day; in data set [9] (setting [26]), 4 mg/kg/day; in [9] (group: systemic, systemic / pathology microscopic / ovary / hyperplasia), 7 mg/kg/day; in [10] (setting [26]), 50 mg/kg/day; in data set [10] (setting [33]), 50 mg/kg/day. Besides, the LEL stood at 7 mg/kg/day in data set [11] (setting [26]); 8 mg/kg/day in data set [11] (setting [34]); 45 mg/kg/day in [12] (setting [26]); 65 mg/kg/day in data set [12] (setting [31]); 50 mg/kg/day in data set [13] (setting [26]); 50 mg/kg/day in [13] (setting [33]). The LOAEL in data set [8] (setting [26]) is > 750 mg/kg/day; in data set [8] (setting [30]) it was > 750 mg/kg/day; in data set [9] (setting [26]), > 30 mg/kg/day; in [9] (setting [32]) it was > 30 mg/kg/day; in data set [10] (setting [26]), > 800 mg/kg/day; in data set [10] (setting [30]) it was > 800 mg/kg/day. In addition, the LOAEL in data set [11] (setting [26]) was 7 mg/kg/day; in data set [11] (setting [34]), 8 mg/kg/day; in data set [12] (setting [26]), > 900 mg/kg/day; in data set [12] (setting [35]), > 900 mg/kg/day; in [13] (setting [26]), > 800 mg/kg/day; in data set [13] (setting [36]) it was > 800 mg/kg/day. Besides, the NEL in data set [8] (setting [26]) was < 55 mg/kg/day; in data set [8] (setting [31]) it was < 55 mg/kg/day; in data set [9] (setting [26]), < 4 mg/kg/day; in [9] (setting [32]), 4 mg/kg/day; in data set [10] (setting [26]) it was < 50 mg/kg/day; in data set [10] (setting [33]) it was < 50 mg/kg/day. Also, the NEL in data set [11] (setting [26]) is < 7 mg/kg/day; in [11] (setting [34]) it was < 8 mg/kg/day; in data set [12] (setting [26]), < 45 mg/kg/day; in [12] (setting [31]) it was < 65 mg/kg/day; in [13] (setting [26]), < 50 mg/kg/day; in data set [13] (setting [33]), < 50 mg/kg/day. In addition, the NOAEL in [8] (setting [26]) is ≥ 750 mg/kg/day; in data set [8] (setting [30]) it was ≥ 750 mg/kg/day; in data set [9] (setting [26]), ≥ 30 mg/kg/day; in data set [9] (setting [32]), ≥ 30 mg/kg/day; in [10] (setting [26]), ≥ 800 mg/kg/day; in [10] (setting [30]), ≥ 800 mg/kg/day. Further, the NOAEL in [11] (setting [26]) was < 7 mg/kg/day; in [11] (setting [34]), < 8 mg/kg/day; in [12] (setting [26]), ≥ 900 mg/kg/day; in [12] (setting [35]), ≥ 900 mg/kg/day; in data set [13] (setting [26]), ≥ 800 mg/kg/day; in data set [13] (setting [36]) it was ≥ 800 mg/kg/day.
